According to ChEMBL document CHEMBL5576135, “Discovery of Indolo[3,2-c]isoquinoline Derivatives as Novel Top1/2 Dual Inhibitors with Orally Efficacious Antitumor Activity and Low Toxicity” (J Med Chem, 2024):

test system: HCT-116; assay: Antiproliferative activity against human HCT-116 cells assessed as inhibition of cell growth incubated for 96 hrs by MTT based ELISA; type: functional; settings: HCT-116, 96 h

Row | IC50 [µM] | SMILES
1 | > 10 | COc1ccc2c(c1)c1nc(Cl)c3ccccc3c1n2CCCNc1ccn([C@@H]2O[C@H](CO)[C@@H](O)[C@@H]2O)c(=O)n1
2 | > 10 | COc1ccc2c(c1)c1nc(Cl)c3ccccc3c1n2CCCN1C(=O)CC(C)(C)CC1=O
3 | 2.5 | O=C(CCCn1c2ccc(OC(F)F)cc2c2nc(Cl)c3ccccc3c21)NO
4 | 4.07 | O=C(CCCn1c2ccc(OC(F)F)cc2c2ncc3ccccc3c21)NO
5 | 2.26 | CC(C)Oc1ccc2c(c1)c1[nH]c(=O)c3ccccc3c1n2CCCN(C)C

The remaining lines, values behind:

Row | SMILES | IC50 [µM]
6 | COc1ccc2c(c1)c1nc(Cl)c3ccccc3c1n2CCCNc1nc(=O)n([C@@H]2O[C@H](CO)[C@@H](O)[C@H]2O)cc1F | > 10
7 | COc1ccc2c(c1)c1nc(Cl)c3ccccc3c1n2CCCN1CCC(N(C)C)CC1 | 2.55
8 | COc1ccc2c(c1)c1nc(Cl)c3ccccc3c1n2CCCNc1ccn([C@H]2C[C@H](O)[C@@H](CO)O2)c(=O)n1 | > 10
9 | COc1ccc2c(c1)c1nc(Cl)c3ccccc3c1n2CCCN(C)C | 0.82

test system: MDA-MB-231; assay: Antiproliferative activity against human MDA-MB-231 cells assessed as inhibition of cell growth incubated for 96 hrs by MTT based ELISA; type: functional; settings: MDA-MB-231, 96 h

Row | IC50 [µM] | SMILES
10 | > 10 | COc1ccc2c(c1)c1nc(Cl)c3ccccc3c1n2CCCNc1ccn([C@@H]2O[C@H](CO)[C@@H](O)[C@@H]2O)c(=O)n1
11 | > 10 | COc1ccc2c(c1)c1nc(Cl)c3ccccc3c1n2CCCN1C(=O)CC(C)(C)CC1=O
12 | 3.69 | O=C(CCCn1c2ccc(OC(F)F)cc2c2nc(Cl)c3ccccc3c21)NO
13 | 2.38 | O=C(CCCn1c2ccc(OC(F)F)cc2c2ncc3ccccc3c21)NO
14 | 5.6 | CC(C)Oc1ccc2c(c1)c1[nH]c(=O)c3ccccc3c1n2CCCN(C)C

Second part, the compound before the results:

Row | SMILES | IC50 [µM]
15 | COc1ccc2c(c1)c1nc(Cl)c3ccccc3c1n2CCCNc1nc(=O)n([C@@H]2O[C@H](CO)[C@@H](O)[C@H]2O)cc1F | > 10
16 | COc1ccc2c(c1)c1nc(Cl)c3ccccc3c1n2CCCN1CCC(N(C)C)CC1 | 4.1
17 | COc1ccc2c(c1)c1nc(Cl)c3ccccc3c1n2CCCNc1ccn([C@H]2C[C@H](O)[C@@H](CO)O2)c(=O)n1 | > 10
18 | COc1ccc2c(c1)c1nc(Cl)c3ccccc3c1n2CCCN(C)C | 1.2

test system: Huh-7; assay: Antiproliferative activity against human Huh-7 cells assessed as inhibition of cell growth incubated for 96 hrs by MTT based ELISA; type: functional; settings: Huh-7, 96 h

Row | IC50 [µM] | SMILES
19 | > 10 | COc1ccc2c(c1)c1nc(Cl)c3ccccc3c1n2CCCNc1ccn([C@@H]2O[C@H](CO)[C@@H](O)[C@@H]2O)c(=O)n1
20 | > 10 | COc1ccc2c(c1)c1nc(Cl)c3ccccc3c1n2CCCN1C(=O)CC(C)(C)CC1=O
21 | 4.13 | O=C(CCCn1c2ccc(OC(F)F)cc2c2nc(Cl)c3ccccc3c21)NO
22 | 3.37 | O=C(CCCn1c2ccc(OC(F)F)cc2c2ncc3ccccc3c21)NO
23 | 6.74 | CC(C)Oc1ccc2c(c1)c1[nH]c(=O)c3ccccc3c1n2CCCN(C)C

More lines, now with the values behind:

Row | SMILES | IC50 [µM]
24 | COc1ccc2c(c1)c1nc(Cl)c3ccccc3c1n2CCCNc1nc(=O)n([C@@H]2O[C@H](CO)[C@@H](O)[C@H]2O)cc1F | > 10
25 | COc1ccc2c(c1)c1nc(Cl)c3ccccc3c1n2CCCN1CCC(N(C)C)CC1 | 4.36
26 | COc1ccc2c(c1)c1nc(Cl)c3ccccc3c1n2CCCNc1ccn([C@H]2C[C@H](O)[C@@H](CO)O2)c(=O)n1 | > 10
27 | COc1ccc2c(c1)c1nc(Cl)c3ccccc3c1n2CCCN(C)C | 1.77

test system: NCI-H2228; assay: Antiproliferative activity against human NCI-H2228 cells assessed as inhibition of cell growth incubated for 96 hrs by MTT based ELISA; type: functional; settings: NCI-H2228, 96 h

Row | IC50 [µM] | SMILES
28 | > 10 | COc1ccc2c(c1)c1nc(Cl)c3ccccc3c1n2CCCNc1ccn([C@@H]2O[C@H](CO)[C@@H](O)[C@@H]2O)c(=O)n1
29 | > 10 | COc1ccc2c(c1)c1nc(Cl)c3ccccc3c1n2CCCN1C(=O)CC(C)(C)CC1=O
30 | 5.31 | O=C(CCCn1c2ccc(OC(F)F)cc2c2nc(Cl)c3ccccc3c21)NO
31 | 3.74 | O=C(CCCn1c2ccc(OC(F)F)cc2c2ncc3ccccc3c21)NO
32 | 2.56 | CC(C)Oc1ccc2c(c1)c1[nH]c(=O)c3ccccc3c1n2CCCN(C)C

Second part, the compound before the results:

Row | SMILES | IC50 [µM]
33 | COc1ccc2c(c1)c1nc(Cl)c3ccccc3c1n2CCCNc1nc(=O)n([C@@H]2O[C@H](CO)[C@@H](O)[C@H]2O)cc1F | > 10
34 | COc1ccc2c(c1)c1nc(Cl)c3ccccc3c1n2CCCN1CCC(N(C)C)CC1 | 2.73
35 | COc1ccc2c(c1)c1nc(Cl)c3ccccc3c1n2CCCNc1ccn([C@H]2C[C@H](O)[C@@H](CO)O2)c(=O)n1 | > 10
36 | COc1ccc2c(c1)c1nc(Cl)c3ccccc3c1n2CCCN(C)C | 1.28

test system: PC-3; assay: Antiproliferative activity against human PC-3 cells assessed as inhibition of cell growth incubated for 96 hrs by MTT based ELISA; type: functional; settings: PC-3, 96 h

Row | IC50 [µM] | SMILES
37 | > 10 | COc1ccc2c(c1)c1nc(Cl)c3ccccc3c1n2CCCNc1ccn([C@@H]2O[C@H](CO)[C@@H](O)[C@@H]2O)c(=O)n1
38 | > 10 | COc1ccc2c(c1)c1nc(Cl)c3ccccc3c1n2CCCN1C(=O)CC(C)(C)CC1=O
39 | 4.11 | O=C(CCCn1c2ccc(OC(F)F)cc2c2nc(Cl)c3ccccc3c21)NO
40 | 4.3 | O=C(CCCn1c2ccc(OC(F)F)cc2c2ncc3ccccc3c21)NO
41 | 4.91 | CC(C)Oc1ccc2c(c1)c1[nH]c(=O)c3ccccc3c1n2CCCN(C)C

More lines, now with the values behind:

Row | SMILES | IC50 [µM]
42 | COc1ccc2c(c1)c1nc(Cl)c3ccccc3c1n2CCCNc1nc(=O)n([C@@H]2O[C@H](CO)[C@@H](O)[C@H]2O)cc1F | > 10
43 | COc1ccc2c(c1)c1nc(Cl)c3ccccc3c1n2CCCN1CCC(N(C)C)CC1 | 2.7
44 | COc1ccc2c(c1)c1nc(Cl)c3ccccc3c1n2CCCNc1ccn([C@H]2C[C@H](O)[C@@H](CO)O2)c(=O)n1 | > 10
45 | COc1ccc2c(c1)c1nc(Cl)c3ccccc3c1n2CCCN(C)C | 1.22

test system: MCF7; assay: Antiproliferative activity against human MCF7 cells assessed as inhibition of cell growth incubated for 96 hrs by MTT based ELISA; type: functional; settings: MCF7, 96 h

Row | IC50 [µM] | SMILES
46 | > 10 | COc1ccc2c(c1)c1nc(Cl)c3ccccc3c1n2CCCNc1ccn([C@@H]2O[C@H](CO)[C@@H](O)[C@@H]2O)c(=O)n1
47 | > 10 | COc1ccc2c(c1)c1nc(Cl)c3ccccc3c1n2CCCN1C(=O)CC(C)(C)CC1=O
48 | 4.35 | O=C(CCCn1c2ccc(OC(F)F)cc2c2nc(Cl)c3ccccc3c21)NO
49 | 5.71 | O=C(CCCn1c2ccc(OC(F)F)cc2c2ncc3ccccc3c21)NO
50 | > 10 | CC(C)Oc1ccc2c(c1)c1[nH]c(=O)c3ccccc3c1n2CCCN(C)C

More lines, now with the values behind:

Row | SMILES | IC50 [µM]
51 | COc1ccc2c(c1)c1nc(Cl)c3ccccc3c1n2CCCNc1nc(=O)n([C@@H]2O[C@H](CO)[C@@H](O)[C@H]2O)cc1F | > 10
52 | COc1ccc2c(c1)c1nc(Cl)c3ccccc3c1n2CCCN1CCC(N(C)C)CC1 | 2.96
53 | COc1ccc2c(c1)c1nc(Cl)c3ccccc3c1n2CCCNc1ccn([C@H]2C[C@H](O)[C@@H](CO)O2)c(=O)n1 | > 10
54 | COc1ccc2c(c1)c1nc(Cl)c3ccccc3c1n2CCCN(C)C | 1.64
